# According to patent US12171744B2, “Pharmaceutical combinations for the treatment of cancer” (Presage Biosciences, Inc., priority 2016, dated 2024):
# “Also recorded” adds a separate entry of the source.
# Assays:
# [1] = test system: RIVA (activated B-cell, or ABC) model of DLBCL; assay: Xenograft tumor growth; assay type: in vivo, NOD SCID mice; details: Voruciclib 200 mpk, Venetoclax 1 mpk
# Description: Immune deficient NOD SCID mice were implanted with the RIVA (activated B-cell, or ABC) model of DLBCL. The xenografted tumors were allowed to grow in the NOD SCID host until they reached 200 mm^3, at which point the xenografted animals were randomized into 4 study groups: 1. Vehicle control; 2. […] Venetoclax at 1 mpk; and 4. […] Venetoclax was dosed by oral gavage on days 1 and 4 of each weekly cycle. Drug effects were assessed via tumor volume measurements twice weekly by a technician blinded to the treatment of each subject in the study. N=5-6 animals per treatment arm.
# MAK = MAK (Homo sapiens, UniProt P20794); assay: Kinase inhibition profile
# Sequence of MAK (P20794 whole entry): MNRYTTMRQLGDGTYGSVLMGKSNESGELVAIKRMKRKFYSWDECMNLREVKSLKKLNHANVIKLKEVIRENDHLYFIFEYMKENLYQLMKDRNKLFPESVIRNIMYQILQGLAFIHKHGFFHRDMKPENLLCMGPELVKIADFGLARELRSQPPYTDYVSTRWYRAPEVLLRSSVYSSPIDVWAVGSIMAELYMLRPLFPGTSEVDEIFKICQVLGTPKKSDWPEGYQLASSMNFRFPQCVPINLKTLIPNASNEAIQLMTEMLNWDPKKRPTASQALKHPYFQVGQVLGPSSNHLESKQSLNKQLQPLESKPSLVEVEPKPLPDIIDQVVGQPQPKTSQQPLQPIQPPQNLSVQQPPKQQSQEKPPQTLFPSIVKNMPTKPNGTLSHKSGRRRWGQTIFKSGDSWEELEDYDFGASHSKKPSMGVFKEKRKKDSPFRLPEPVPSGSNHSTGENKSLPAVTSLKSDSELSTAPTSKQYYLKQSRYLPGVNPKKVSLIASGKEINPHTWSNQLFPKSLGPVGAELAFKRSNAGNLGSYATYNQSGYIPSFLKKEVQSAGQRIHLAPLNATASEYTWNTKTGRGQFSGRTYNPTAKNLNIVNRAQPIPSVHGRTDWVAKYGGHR
# SU-DHL-4 model of DLBCL = assay: Western blot of treated cells; assay type: cell-based
# Description: (§1) Cell lines shown in Table 1, adherent or suspension, were treated in 6-well dishes or T10 flasks respectively, seeded at one million per ml density prior to treatment in total volumes of 3-10 ml. All agents used for in vitro cell treatments were formulated in water/DMSO to achieve required concentrations (as stated in respective figure labels/legends) with DMSO concentrations not exceeding 0.01%. Drug sources are indicated in table under ‘CIVO microinjection studies’. Cells were harvested at experimental time points: 2, 6, or 24 hours post treatment as indicated in respective figures, first by washing cells twice in ice-cold PBS in 15 ml falcon tubes, centrifugation at 1000 rpm for 5 mins followed by lysis of the respective cell pellets as described in section below. Note: Drug resistant NUDHL1 Dox 1000 nM and Toledo Dox 1000 nM cell lines were generated at Presage by culturing parental lines in media with stepwise increments in Doxorubicin concentration over several passages. These cells were used to generate xenografts when resistance to 1 uM Dox was achieved.
# (§2) Protein lysates were prepared by adding ice-cold 1×RIPA Buffer (from 10×, Millipore) with 1×-3× Halt protease and phosphatase inhibitor cocktail (100×, Pierce) to cell pellets, followed by pulse sonication (˜3-5 secs) three times. Lysates were cleared by centrifugation at 14K rpm for 15-20 mins and the supernatant (lysate) was collected for further analysis. To prepare lysates from cryopreserved xenograft tumor tissue, tissue was first homogenized using a hand-held tissue homogenizer (Cole Palmer) in above lysis buffer followed by pulse sonication and centrifugation as described above. Above steps were carried out under ice cold conditions. Protein samples were quantified using Bradford assay (Biorad) at 1:10 or higher dilutions using appropriate blank controls with 1×RIPA. 20-25 micrograms of protein from each sample were subject to SDS-PAGE using BOLT 4-12% Bis-Tris gels (Thermofisher) and transferred to either 0.45 or 0.2 micron pore size membranes (as applicable based on protein molecular size), and either nitrocellulose (NC) or pvdf (Thermofisher) using manufacturer's protocol, blocked for one hour in 5% milk at room temperature, probed with primary antibodies (Table 2) at 4 deg C. overnight and corresponding HRP-conjugated secondary antibodies (Jackson Immunoresearch, 1:10,000-1:20,000 dilutions) for 1 hour at room temperature. Three PBS/0.01% Tween-20 washes (5-10 mins each) were carried out after each antibody incubation. ECL chemiluminescent substrate (Pierce or GE) and autoradiographic film (Thermofisher) was used for detection of protein signals.
# Cleaved PARP (cPARP) may be used as a biomarker of apoptosis. […] Cells were exposed to drug for 24 h prior to cell lysis and examination by Western Blot using antibodies specific for the cleaved form of PARP, MCL-1, C-MYC, and Beta actin (as a protein loading control) of FIG. 22A and BCL2 as an additional protein loading control in FIG. 22B.
# Cleaved PARP (cPARP) may be used as a biomarker of apoptosis. To assess combination efficacy of the two agents of voruciclib and venetoclax together, low doses of each were examined as single agents or as a combination in the three models of DLBCL. Cells were exposed to drug for 24 h prior to cell lysis and examination by Western Blot using antibodies specific for the cleaved form of PARP and Beta actin (as a protein loading control).
# FIG. 33 illustrates that voruciclib-induced apoptosis correlates with repression of MCL-1. Three DLBCL models were used: SUDHL4, RIvA, and U2932. Cleaved PARP (cPARP) may be used as a biomarker of apoptosis.
# [2] = test system: NU-DHL-1 diffuse large B-cell lymphoma (DLBCL) cells; assay: CIVO microinjection, staining for MCL-1 and cleaved caspase-3; assay type: in vivo, mice
# Description: Mice were enrolled into CIVO drug studies when the tumor volume reached approximately 1000 mm^3. […] A fluorescent tracking marker (FTM) was added to each drug reservoir in vehicle for delivery along with each drug or drug combination. […] Total amounts of agents injected are tabulated below in Table 4.
# The cells were stained for cleaved caspase-3 (CC3) (shown in red) as a marker of apoptosis.
# SKM-1 = assay: Western blot of treated AML cells; assay type: cell-based
# Description: as §1, §2
# (§3) At the given time points, cells were lysed and subjected to western blot analysis with antibodies that specifically recognize phosphorylated RNA pol II (pSer2), MCL-1, cleaved PARP, and Beta-actin. […] Cleaved PARP (cPARP) may be used as a biomarker of apoptosis.
# (§4) At the given time points, cells were lysed and subjected to western blot analysis with antibodies that specifically recognize phosphorylated RNA pol II (pSer2), MCL-1, cleaved PARP, and Beta-actin. […] Venetoclax is observed to induce MCL-1 upregulation in all three cell lines.
# MV-4-11 = assay: Western blot of treated AML cells; assay type: cell-based
# Description: as §1, §2, §3, §4
# OCI-AML-3 = assay: Western blot of treated AML cells; assay type: cell-based
# Description: as §1, §2, §3, §4
# [3] = 0.15 uM voruciclib, 20 nM venetoclax, 24 h
# [4] = increasing concentration of voruciclib, single agent
# [5] = voruciclib 1.5 and 5.0 micromolar, 2, 6, or 24 h
# [6] = voruciclib 1.5 micromolar, venetoclax 100 nM, 24 h
structure (smiles),measurement,setting,value
"CN1CC[C@@H](c2c(O)cc(O)c3c(=O)cc(-c4ccc(C(F)(F)F)cc4Cl)oc23)[C@@H]1CO (relative stereo) [voruciclib, (+)-trans-2-(2-Chloro-4-trifluoromethylphenyl)-5,7-dihydroxy-8-(2-hydroxymethyl-1-methylpyrrolidin-3-yl)-chromen-4-one]",tumor size (images),[1],smaller
same,average tumor volume,[1]; oral gavage,decrease in tumor volume
same,inhibition of MAK,MAK,does not show potent inhibition
same,venetoclax-induced MCL-1,"SU-DHL-4 model of DLBCL; 0.15 uM voruciclib with 20 nM venetoclax, 24 h",represses
same,MCL-1 expression,SU-DHL-4 model of DLBCL; [3],maintains some efficacy for repressing
same,apoptosis (cleaved PARP),SU-DHL-4 model of DLBCL; [3],neither compound induces apoptosis as a single agent
same,MCL-1,SU-DHL-4 model of DLBCL; [4],suppresses
same,apoptosis (cPARP),SU-DHL-4 model of DLBCL; [4],increases as the concentration of voruciclib increases
same,MCL1,"SU-DHL-4 model of DLBCL; voruciclib 1.5 uM, 24 h, Western blot",suppresses
same,expression of CC3 (cleaved caspase-3),[2]; marker of apoptosis,slight increased; also recorded: slight effect
same,expression of MCL-1,"[2]; staining, versus vehicle",decreased
same,MCL-1,SKM-1; [5],suppresses
same,apoptosis (cleaved PARP),SKM-1; [5],induces apoptosis
same,MCL-1,SKM-1; [6],dampens
same,apoptosis (PARP),SKM-1; [6],neither agent alone induces apoptosis
same,MCL-1,MV-4-11; [5],suppresses
same,apoptosis (cleaved PARP),MV-4-11; [5],induces apoptosis
same,MCL-1,MV-4-11; [6],dampens
same,apoptosis (PARP),MV-4-11; [6],neither agent alone induces apoptosis
same,MCL-1,OCI-AML-3; [5],suppresses
same,apoptosis (cleaved PARP),OCI-AML-3; [5],induces apoptosis
same,MCL-1,OCI-AML-3; [6],dampens
same,apoptosis (PARP),OCI-AML-3; [6],neither agent alone induces apoptosis
